{"source": "paper PMC6494957", "about": "(Frontiers in Microbiology, 2019)", "key": {"[1]": {"test_system": "Beta-haemolytic streptococci (n = 20) clinical isolates from otitis externa cases in dogs", "assay": "MIC/MBC and checkerboard, canine otitis externa isolates", "assay_type": "cell-based, beta-haemolytic Streptococcus spp.", "details": "for MIC50 / MIC90: Streptococcus", "text": "(§1) Escherichia coli ATCC 25922, E. coli ATCC 11229, P. aeruginosa ATCC 27853, P. aeruginosa PA01, Pseudomonas putida ATCC 17428, P. mirabilis ATCC 43071, K. pneumoniae ATCC 13883, A. baumannii ATCC 19606, and A. baumannii ATCC 12457 were used for preliminary susceptibility testing and combination experiments. S. aureus ATCC 29213 and S. pneumoniae ATCC 49619 were used as internal quality controls. A variety of bacterial organisms from both human and canine infections were investigated in this study (n = 119 isolates in total). Twenty-eight clinical Acinetobacter spp. isolates were obtained from cases of human skin and soft tissue infections, including 18 Acinetobacter baumannii and 10 A. calcoaceticus, kindly provided by a person (Institute of Medical and Veterinary Science, South Australia). […] Ninety-one clinical isolates were obtained from cases of canine otitis externa, including seven methicillin-susceptible S. pseudintermedius (MSSP), 13 multidrug- and methicillin-resistant S. pseudintermedius (MRSP) ([Saputra et al., 2017]), 20 beta-haemolytic Streptococcus spp., 30 P. aeruginosa (10 of them resistant to gentamicin and 21 P. mirabilis isolates). These isolates were obtained from the bacterial collection of the national survey of antimicrobial resistance in animals conducted in Australia. Swab samples from dogs with signs of otitis externa were collected by veterinarians and submitted to government, private or university diagnostic laboratories throughout Australia. After routine bacterial identification and the removal of confidential information, the participating veterinary diagnostic laboratories submitted the bacteria and their clinical information to PC2 Laboratories, Australian Centre for Antimicrobial Resistance Ecology, School of Animal and Veterinary Sciences, University of Adelaide, Roseworthy Campus, Roseworthy, SA, Australia, for further study. Thus, animal ethics approval was not required in this study. These organisms were identified to species level using biochemical testing and MALDI-TOF mass spectrometry (Bruker, Preston, VIC, Australia).\n(§2) The MIC for ampicillin or gentamicin against each isolate was determined for each test to serve as an internal quality control. The MICs of isolates were determined by visual reading and using an EnSpire Multimode Plate Reader 2300 atA600nm.\n(§3) Briefly, 10 μl aliquots from each duplicate well from the MIC assays (starting from the MIC for each compound) were inoculated onto a sheep blood agar (SBA) plate and incubated at 37°C.\n(§4) Briefly, antimicrobial stock solutions for robenidine and PMBN were prepared at a concentration of 12.8 mg/ml in DMSO. […] A 1 μl aliquot of the first compound from each combination was dispensed along the abscissa (from row A to G) of the 96-well microplate, while the second compound was dispensed along the ordinate (from column 12 to column 3) using an electronic multichannel pipette followed by 89 μl of LB broth. Each well of the plate was inoculated with an aliquot of 10 μl bacterial suspension at a concentration of 1-5 × 10^6 colony forming units (CFU) per ml. Subsequently, the plate was incubated at 37°C for 24 h. The fractional inhibitory concentration index (FICI) described the results of the combinations, and was calculated utilizing the following formula:\n(§5) DRI = MIC of drug alone/MIC of drug in combination"}, "[2]": {"test_system": "S. pseudintermedius (n = 20) clinical isolates from otitis externa cases in dogs", "assay": "MIC/MBC and checkerboard, canine otitis externa isolates", "assay_type": "cell-based, Staphylococcus pseudintermedius", "details": "for MIC50 / MIC90: Staphylococcus pseudintermedius", "text": "as §1, §2, §3, §4, §5"}, "P. aeruginosa PA01": {"test_system": "P. aeruginosa PA01", "assay": "MIC broth microdilution and checkerboard", "assay_type": "cell-based, Pseudomonas aeruginosa", "details": "for MIC: Pseudomonas aeruginosa", "procedure": "as §2, §4, §5"}, "A. baumannii ATCC 19606": {"test_system": "A. baumannii ATCC 19606", "assay": "microbe, parasite or virus in culture", "details": "for MIC: Acinetobacter baumannii", "procedure": "as §2, §4, §5"}, "[3]": {"test_system": "A. calcoaceticus (human clinical isolate)", "assay": "microbe, parasite or virus in culture", "details": "A. calcoaceticus human clinical isolate", "procedure": "as §2, §4, §5"}, "[4]": {"details": "canine otitis externa, read-out: MIC50, single drug"}, "[5]": {"details": "canine otitis externa, read-out: MIC90, single drug"}, "[6]": {"details": "read-out: MIC50, single drug (mM in parentheses)"}, "[7]": {"details": "read-out: MIC90, single drug (mM in parentheses)"}, "[8]": {"details": "concentration of the labelled component"}}, "note": "Like-named read-outs stand apart in the source and are kept apart here.", "data": [{"smiles": "O=C(O)CN(CCN(CC(=O)O)CC(=O)O)CC(=O)O", "note": "[EDTA, ethylenediaminetetraacetic acid]", "values": [{"measurement": "MBC/MIC row, EDTA in combination", "setting": "[1]", "result": 750, "unit": "mg/L"}, {"measurement": "MBC/MIC row, EDTA in combination (mM in parentheses)", "setting": "[1]", "result": 2, "unit": "mM"}, {"measurement": "MIC range, single drug (mM in parentheses)", "setting": "[1]", "result": "0.5 to 2", "unit": "mM"}, {"measurement": "MIC50, in combination of EDTA and ROB (mM in parentheses)", "setting": "[1]; EDTA component", "result": 0.5, "unit": "mM"}, {"measurement": "MIC90, in combination of EDTA and ROB (mM in parentheses)", "setting": "[1]; EDTA component", "result": 1, "unit": "mM"}, {"measurement": "MIC range, in combination of EDTA and ROB (mM in parentheses)", "setting": "[1]; EDTA component", "result": "0.25 to 1", "unit": "mM"}, {"measurement": "MIC50", "setting": "[1]; [4]", "result": 380, "unit": "mg/L"}, {"measurement": "MIC90", "setting": "[1]; [5]", "result": 750, "unit": "mg/L"}, {"measurement": "MIC50", "setting": "[1]; [6]", "result": 1, "unit": "mM"}, {"measurement": "MIC90", "setting": "[1]; [7]", "result": 2, "unit": "mM"}, {"measurement": "MIC range, single drug", "setting": "[1]; canine otitis externa", "result": "190 to 750", "unit": "mg/L"}, {"measurement": "MIC50, in combination of EDTA and ROB", "setting": "[1]; [8]", "result": 190, "unit": "mg/L"}, {"measurement": "MIC90, in combination of EDTA and ROB", "setting": "[1]; [8]", "result": 380, "unit": "mg/L"}, {"measurement": "MIC range, in combination of EDTA and ROB", "setting": "[1]; [8]", "result": "95 to 380", "unit": "mg/L"}, {"measurement": "MBC/MIC row, EDTA in combination", "setting": "[2]", "result": 750, "unit": "mg/L"}, {"measurement": "MBC/MIC row, EDTA in combination (mM in parentheses)", "setting": "[2]", "result": 2, "unit": "mM"}, {"measurement": "MIC range, single drug (mM in parentheses)", "setting": "[2]", "result": "0.25 to 1", "unit": "mM"}, {"measurement": "MIC50, in combination of EDTA and ROB (mM in parentheses)", "setting": "[2]; EDTA component", "result": 0.25, "unit": "mM"}, {"measurement": "MIC90, in combination of EDTA and ROB (mM in parentheses)", "setting": "[2]; EDTA component", "result": 0.25, "unit": "mM"}, {"measurement": "MIC range, in combination of EDTA and ROB (mM in parentheses)", "setting": "[2]; EDTA component", "result": 0.25, "unit": "mM"}, {"measurement": "MIC50", "setting": "[2]; [4]", "result": 190, "unit": "mg/L"}, {"measurement": "MIC90", "setting": "[2]; [5]", "result": 190, "unit": "mg/L"}, {"measurement": "MIC50", "setting": "[2]; [6]", "result": 0.5, "unit": "mM"}, {"measurement": "MIC90", "setting": "[2]; [7]", "result": 0.5, "unit": "mM"}, {"measurement": "MIC range, single drug", "setting": "[2]; canine otitis externa", "result": "95 to 380", "unit": "mg/L"}, {"measurement": "MIC50, in combination of EDTA and ROB", "setting": "[2]; [8]", "result": 95, "unit": "mg/L"}, {"measurement": "MIC90, in combination of EDTA and ROB", "setting": "[2]; [8]", "result": 95, "unit": "mg/L"}, {"measurement": "MIC range, in combination of EDTA and ROB", "setting": "[2]; [8]", "result": 95, "unit": "mg/L"}, {"measurement": "DRI EDTA:ROB", "setting": "P. aeruginosa PA01; DRI of the labelled component", "result": 2}, {"measurement": "MIC in combination EDTA:ROB (mM in parentheses)", "setting": "P. aeruginosa PA01; EDTA component", "result": 2.5, "unit": "mM"}, {"measurement": "MIC", "setting": "P. aeruginosa PA01; read-out: MIC, single drug", "result": 1900, "unit": "mg/L"}, {"measurement": "MIC", "setting": "P. aeruginosa PA01; read-out: MIC, single drug (mM in parentheses)", "result": 5, "unit": "mM"}, {"measurement": "MIC in combination EDTA:ROB", "setting": "P. aeruginosa PA01; [8]", "result": 950, "unit": "mg/L"}, {"measurement": "DRI EDTA:ROB", "setting": "A. baumannii ATCC 19606; A. baumannii ATCC 19606, DRI of the labelled component", "result": 2}, {"measurement": "MIC in combination EDTA:ROB (mM in parentheses)", "setting": "A. baumannii ATCC 19606; A. baumannii ATCC 19606, EDTA component", "result": 0.5, "unit": "mM"}, {"measurement": "MIC in combination EDTA:ROB", "setting": "A. baumannii ATCC 19606; A. baumannii ATCC 19606, concentration of the labelled component", "result": 190, "unit": "mg/L"}, {"measurement": "MIC", "setting": "A. baumannii ATCC 19606; ATCC19606, read-out: MIC, single drug", "result": 380, "unit": "mg/L"}, {"measurement": "MIC", "setting": "A. baumannii ATCC 19606; ATCC19606, read-out: MIC, single drug (mM in parentheses)", "result": 1, "unit": "mM"}, {"measurement": "DRI EDTA:ROB", "setting": "[3]; DRI of the labelled component", "result": 1}, {"measurement": "MIC in combination EDTA:ROB (mM in parentheses)", "setting": "[3]; EDTA component", "result": 0.6, "unit": "mM"}, {"measurement": "MIC in combination EDTA:ROB", "setting": "[3]; [8]", "result": 228, "unit": "mg/L"}]}]}
